# Like-named read-outs stand apart in the source and are kept apart here.
# Key:
# [1] = in vitro; assay type: in vitro ADME; settings: pH 7.4, 24 hours, room temperature; for Papp at 24 h, 400 µM: PAMPA, pH 7.4, 400 μM, read-out: PAMPA Permeability Coefficient (×10^6)
# Method: PAMPA is a useful in vitro model for predicting the passive diffusion of drugs across the blood-brain barrier (Li, D et al Eur jour of Med Chem 38 (2003) 223-232).
# Compounds were diluted in a 100 mM phosphate buffer (pH 7.4) to a concentration of 400 μM and the stock solutions were placed into a 96-well filter plate (Millipore, #MAIPN4510) pre-wetted with 20 mg/mL porcine brain polar lipid extract in 100% dodecane (Avanti, #131022) and placed into a 96-well acceptor plate (Millipore, #MSSACCEPTOR) whose wells were filled with the same phosphate buffer as in the filter plate. This assembly was incubated at room temperature for 24 hours. The experiment was halted by separating the filter plate from the acceptor plate. Aliquots were removed from the filter plate wells, acceptor plate wells, and stock solutions, and 1% trifluoroacetic acid was added to each. All solutions were measured by LC/UV, and passive diffusion rates were calculated using the peak area values (Avdeef, Alex. 2003. Page 147 in Absorption and Drug Development. Hoboken, N.J.: John Wiley & Sons).
# [2] = test system: muscarinic M1 receptors in the hippocampus; test: In vivo inositol phosphate increase in hippocampus, Example 44; parameters: species or system Long Evans Hooded rats; settings: rat, 3 mg/kg sc, 5 mmole/kg LiCl
# Method: (§1) In lithium chloride-treated laboratory rodents, engagement of muscarinic M1 receptors in the hippocampus may usefully be evaluated in vivo by measuring the increase in the tissue of inositol phosphate (Bymaster F P et al Brain Res 795 (1998) 179-190). This may also be extended to measure engagement of muscaric M3 receptors in the salivary glands.
# (§2) Experimental compounds were administered subcutaneously at 3 mg/kg using standard techniques to Long Evans Hooded rats weighing 225 to 350 g, and which had been pretreated with a subcutaneous injection of lithium chloride at a suitable dose between 3 and 5 mmole/kg. At suitable times the animals were briefly anesthetized using 5% isoflurane and euthanized by decapitation. The brains and submaxillary salivary glands were rapidly dissected out, and the hippocampuses were dissected from the brains. The dissected tissues were homogenized in a suitable volume of ice-cold phosphate-buffered saline containing 10 mM lithium chloride (pH=7.4) using a tissue homogenizer, and used immediately or frozen in aliquots at −80° C. for future use. The concentration of inositol-1-phosphate was determined in the homogenates using the […] IP-One Terbium TR-FRET assay kit (Cisbio Bioassays, cat. #62IPAPEJ) according to the manufacturer's instructions.
# [3] = Blood and brain concentrations (rats), tail vein injection; assay type: in vivo, Long-Evans Hooded rats; settings: rat; for Kp at 1 h: brain and plasma, intravenous, Table 114, read-out: Brain/Plasma Ratio
# Method: Long-Evans Hooded rats (Charles River: male, 230-300 g) were dosed with solutions of test compounds in PBS by tail vein injection. The dose for all compounds was 3 mg/kg. At one hour, the animals were anesthetized with isoflurane, and then euthanized by decapitation. Trunk blood was collected into a 1.5 mL microcentrifuge tube containing 15 U Heparin, and the plasma recovered after centrifugation. Brains were dissected, weighed, immediately chilled to 4° C., and homogenized using a PowerGen 125 homogenizer in five volumes of ice-cold 2% formic acid. Proteins were precipitated from plasma and brain homogenate with nine and five volumes respectively of ice-cold 2% formic acid and clarified by centrifugation. The supernatant was ultra-filtered by centrifugation through a 3K MWCO spin column (Pall Life Sciences), following the manufacturer's instructions. The concentration of compound in the ultra-filtrate was subjected to reverse-phase liquid chromatography using a 150×2.1 mm Agent C8 reverse-phase column on a Shimadzu Prominence LC, eluting the compounds with a gradient of 2% to 50% of acetonitrile+0.1% formic acid for all compounds. The concentration of the compound in the column effluent was measured using an Applied Biosystems API-3200 triple quadrupole mass spectrometer equipped with an electrospray sample injection system. The counts of the characteristic parent and product ions of each test compound were converted to concentration units by comparison with a standard curve.
# [4] = target: T1, human muscarinic M3 receptors (Homo sapiens, UniProt P20309); assay type: cell-based; settings: for huM3/A9L Smax: percentage of maximal stimulation by carbachol; for huM3/A9L Potency relative to carbachol: relative to the potency of carbachol at its EC50
# T1 construct: host or cells: A9L cells
# T1 sequence (P20309 whole entry): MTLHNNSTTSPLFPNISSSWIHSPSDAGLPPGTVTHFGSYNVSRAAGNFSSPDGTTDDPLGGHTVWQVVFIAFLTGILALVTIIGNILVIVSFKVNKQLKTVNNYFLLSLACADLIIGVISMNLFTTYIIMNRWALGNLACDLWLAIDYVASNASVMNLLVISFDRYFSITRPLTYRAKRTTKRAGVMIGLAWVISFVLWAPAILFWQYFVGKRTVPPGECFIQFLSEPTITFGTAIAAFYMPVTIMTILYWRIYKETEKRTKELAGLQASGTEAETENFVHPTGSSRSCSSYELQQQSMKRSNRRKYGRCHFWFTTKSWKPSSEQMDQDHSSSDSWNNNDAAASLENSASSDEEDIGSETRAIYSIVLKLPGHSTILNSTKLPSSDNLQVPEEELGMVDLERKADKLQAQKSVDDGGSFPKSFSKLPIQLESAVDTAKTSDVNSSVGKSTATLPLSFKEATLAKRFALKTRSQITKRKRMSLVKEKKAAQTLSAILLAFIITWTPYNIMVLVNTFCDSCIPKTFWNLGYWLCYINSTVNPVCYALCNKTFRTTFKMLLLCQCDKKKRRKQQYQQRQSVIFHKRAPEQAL
# Method: (§3) Muscarinic M1 and M3 agonist activity was evaluated by measuring the stimulation of inositol phosphate (IP) production in the presence of lithium chloride from A9L cells transfected with expression plasmids containing human muscarinic M1 and M3 receptors, respectively. The cell lines were a gift from Professor William Messer, and the methods were as described in Tejada et al. (J. Med. Chem. 2006; 49: 7518-31) except that the assay was scaled down to run in 384-well plates and the concentration of inositol-1-phosphate in the lysates was determined using the non-isotopic IP-One Terbium TR-FRET assay kit (Cisbio Bioassays, cat. #62IPAPEJ) according to the manufacturer's instructions.
# (§4) Cells were grown to 90% confluence in 384-well high-base, small-volume plates (Greiner Bio-One), compounds were added at suitable concentrations in growth medium containing 10 mM LiCl, buffered with an extra 10 mM HEPES (pH=7.4), and incubated for 60 minutes at 37° C. Cells were lysed and assayed for IP following the manufacturer's instructions.
# (§5) The value for a full agonist is 100%, while partial agonists give values below 100%.
# [5] = target: T2, human muscarinic M1 receptors (Homo sapiens, UniProt P11229); assay type: cell-based; settings: for huM1/A9L Smax: percentage of maximal stimulation by carbachol; for huM1/A9L Potency relative to carbachol: relative to the potency of carbachol at its EC50
# T2 construct: host or cells: A9L cells
# T2 sequence (P11229 1-460): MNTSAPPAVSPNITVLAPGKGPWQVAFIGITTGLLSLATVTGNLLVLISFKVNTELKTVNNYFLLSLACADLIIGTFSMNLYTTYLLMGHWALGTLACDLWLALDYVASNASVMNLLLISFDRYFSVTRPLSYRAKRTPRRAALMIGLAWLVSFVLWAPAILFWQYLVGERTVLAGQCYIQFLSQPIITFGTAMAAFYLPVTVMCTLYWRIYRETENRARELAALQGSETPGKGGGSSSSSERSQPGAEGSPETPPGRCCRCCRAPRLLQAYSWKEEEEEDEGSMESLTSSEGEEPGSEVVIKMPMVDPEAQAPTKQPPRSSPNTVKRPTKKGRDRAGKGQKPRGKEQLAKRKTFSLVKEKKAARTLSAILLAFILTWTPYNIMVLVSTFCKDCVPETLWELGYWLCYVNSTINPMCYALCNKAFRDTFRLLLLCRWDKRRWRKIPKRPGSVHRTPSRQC
# Method: as §3, §4, §5
# [6] = test system: pooled male human liver microsomes; test: Metabolism in human liver microsomes, Example 45; assay type: in vitro ADME
# Method: Aliquots were removed every 2 hours, and 1% formic acid was added to halt the reaction. Samples were centrifuged, filtered through 0.2 micron spinfilter, and the amount of each compound in the supernatants was quantitated using LC/MS/MS as follows. The ultra-filtrates were subjected to reverse-phase liquid chromatography using a 150×2.1 mm Agilent C8-reverse phase column on a Shimadzu Prominence LC, eluting the compound with a gradient of 2%-50% acetonitrile+0.1% formic acid over 5 minutes. The concentration of the compound in the column effluent was measured using an Applied Biosystems API-3200 triple quadrupole mass spectrometer equipped with a Turbo V source (electrospray sample injection) system. The counts of the characteristic parent ions of the protonated compound and product ions were converted to concentration by comparison with a standard calibration curve. The parent/daughter ion pairs that were monitored for each compound were: 166.0/82.0 (105), 166.0/82.0 (106b), 166.0/82.0 (106a), 169.0/83.0 (136), 168.2/83.0 (121), 168.1/83.0 (122a), 168.1/83.0 (122b), 170.2/83.0 (134), 168.2/84.1 (135), 168.1/84.1 (137) and 169.2/82.1 (138).
# [7] = Blood and brain concentrations (rats), tail vein injection; assay type: in vivo, Long-Evans Hooded rats; settings: rat, 3 mg/kg tail vein injection; for half-life: male, Long-Evans Hooded, plasma, iv, 3 mg/kg, read-out: Plasma Terminal Half-life (converted)
# [8] = test system: muscarinic M3 receptors in the salivary glands; test: In vivo inositol phosphate increase in salivary glands, Example 44; parameters: species or system Long Evans Hooded rats; settings: rat, 3 mg/kg sc, 5 mmole/kg LiCl
# Method: as §1, §2
# [9] = 3 mg/kg tail vein injection, read-out: Brain Concentration at 1 hr
# [10] = male, Long-Evans Hooded, 3 mg/kg
# [11] = male, Long-Evans Hooded, in vivo, 3 mg/kg, 3 mg/kg tail vein injection, read-out: Brain Concentration at 1 hr
# [12] = male, Long-Evans Hooded, in vivo, 3 mg/kg, 3 mg/kg tail vein injection, read-out: Plasma Concentration at 1 hr
SMILES,PAMPA Permeability Coefficient (×10^6) ([1]; 400 μM),Increase in Inositol Phosphate in Hippocampus/Control ([2]; 3 mg/kg) [%],"Brain/plasma ratio ([3]; Table 114, 3 mg/kg)",Plasma Concentration at 1 hr ([3]; 3 mg/kg tail vein injection) [µM],"concentration at 1 h [3, 9] [µM]",huM3/A9L Smax [4] [%],huM3/A9L Potency relative to carbachol [4],huM1/A9L Smax [5] [%],huM1/A9L Potency relative to carbachol [5],Loss at 6 hrs (%) [6] [%],Plasma Terminal Half-life [7] [h],Increase in Inositol Phosphate in Salivary Gland/Control ([8]; 3 mg/kg) [%],"Papp at 24 h, 400 µM [1] [×10⁻⁶ cm/s]",Increase in Inositol Phosphate in Hippocampus/Control [2] [%],"Kp at 1 h [3, 10]","concentration at 1 h [3, 11] [µM]","concentration at 1 h [3, 12] [µM]",half-life [7] [h],Increase in Inositol Phosphate in Salivary Gland/Control [8] [%]
"[2H]C([2H])([2H])c1noc(C23CNC([2H])([2H])C2C3)n1 (stereo not shown) [Compound 135, 5-(2,2-d2-3-azabicyclo[3.1.0]hexan-1-yl)-3-methyl-1,2,4-oxadiazole]",5.40 ×10^6,614,0.61,13.8,7.7,46,0.49,70,1.39,26,1.0,194,,,,,,,
"Cc1noc(C23CNCC2C3)n1 (racemic) [Compound 105, 5-(3-Azabicyclo[3.1.0]hexan-1-yl)-3-methyl-1,2,4-oxadiazole]",,,,,,33,0.17,58,0.78,27,,,4.49,563,0.38,4.4,15,1.1,219
"Cc1noc([C@@]23CNC[C@@H]2C3)n1 [Compound 106a, 5-((1R,5R)-3-Azabicyclo[3.1.0]hexan-1-yl)-3-methyl-1,2,4-oxadiazole]",,,,,,45,0.46,80,1.72,50,,,4.25,376,0.39,3.5,5.6,0.7,191
"[2H]C([2H])([2H])c1noc(C23CNC([2H])([2H])C2C3)n1 (stereo not shown) [Compound 136, 5-(4,4,5-d3-3-azabicyclo[3.1.0]hexan-1-yl)-3-methyl-1,2,4-oxadiazole]",,694,,,7.4,36,0.45,41,0.89,11,,231,3.71,,0.56,,13.6,1.15,
"[2H]C1([2H])NCC2(c3nc(C)no3)CC12 (racemic) [Compound 121, 5-(4,4-d2-3-Azabicyclo[3.1.0]hexan-1-yl)-3-methyl-1,2,4-oxadiazole]",,,,,,37,,73,,13,,,3.78,795,0.51,8.6,16.8,1.26,239

# From US9403806B1, “Cognition enhancing compounds and compositions, methods of making, and methods of treating” (NeuroSolis, Inc., priority 2010, dated 2016)
